Assay results: ChEMBL document CHEMBL1909046, “DrugMatrix in vitro pharmacology data”
pIC50, pKi: −log10 of the molar value.

Assays:
D(3) dopamine receptor = D(3) dopamine receptor (Homo sapiens, UniProt P35462); assay: DRUGMATRIX: Dopamine D3 radioligand binding (ligand: [3H] Spiperone); assay type: cell membranes, CHO, Membrane; details: for pIC50: read-out: IC50; for pKi: read-out: Ki
[1] = target: T1, Neuropeptide Y receptor type 2 (Homo sapiens, UniProt P49146); assay type: cell membranes, Membrane; details: kan-ts; also: in other assays of this panel Not Active means under 50% inhibition at 10 µM
T1 sequence (P49146 whole entry): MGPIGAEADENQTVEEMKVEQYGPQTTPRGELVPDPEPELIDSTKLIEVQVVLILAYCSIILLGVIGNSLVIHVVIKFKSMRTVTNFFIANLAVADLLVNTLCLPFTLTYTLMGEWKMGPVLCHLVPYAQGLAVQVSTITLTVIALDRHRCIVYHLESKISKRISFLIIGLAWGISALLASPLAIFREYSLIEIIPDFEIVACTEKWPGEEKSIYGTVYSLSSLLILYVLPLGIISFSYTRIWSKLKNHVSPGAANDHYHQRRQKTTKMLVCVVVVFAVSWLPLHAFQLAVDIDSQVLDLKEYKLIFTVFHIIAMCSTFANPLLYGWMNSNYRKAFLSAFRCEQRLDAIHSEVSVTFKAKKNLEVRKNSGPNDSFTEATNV

Insulin receptor = Insulin receptor (Rattus norvegicus, UniProt P15127); assay type: cell membranes, Wistar, Liver, Membrane; also: in other assays of this panel Not Active means under 50% inhibition at 10 µM
Chain of Insulin receptor (P15127 27-759 limits assumed): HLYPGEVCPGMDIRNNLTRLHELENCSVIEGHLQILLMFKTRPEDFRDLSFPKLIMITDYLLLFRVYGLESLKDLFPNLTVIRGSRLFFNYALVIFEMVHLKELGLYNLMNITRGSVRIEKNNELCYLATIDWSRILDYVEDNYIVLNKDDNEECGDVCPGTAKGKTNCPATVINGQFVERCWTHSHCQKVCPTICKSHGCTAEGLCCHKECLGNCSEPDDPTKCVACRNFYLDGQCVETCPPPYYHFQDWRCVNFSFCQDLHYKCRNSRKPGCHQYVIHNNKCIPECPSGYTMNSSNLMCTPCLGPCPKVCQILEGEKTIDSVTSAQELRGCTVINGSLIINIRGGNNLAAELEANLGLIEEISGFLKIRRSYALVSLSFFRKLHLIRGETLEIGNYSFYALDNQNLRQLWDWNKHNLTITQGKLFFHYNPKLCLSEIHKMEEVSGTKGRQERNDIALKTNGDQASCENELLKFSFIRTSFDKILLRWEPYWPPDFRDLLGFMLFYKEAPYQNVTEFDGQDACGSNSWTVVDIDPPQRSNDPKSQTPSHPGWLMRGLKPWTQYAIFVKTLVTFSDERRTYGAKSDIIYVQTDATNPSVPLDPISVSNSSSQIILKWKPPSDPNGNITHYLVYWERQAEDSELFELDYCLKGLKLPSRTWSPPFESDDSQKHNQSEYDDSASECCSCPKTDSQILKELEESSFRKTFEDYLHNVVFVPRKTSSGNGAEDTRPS
Chain of Insulin receptor (P15127 764-1383 limits assumed): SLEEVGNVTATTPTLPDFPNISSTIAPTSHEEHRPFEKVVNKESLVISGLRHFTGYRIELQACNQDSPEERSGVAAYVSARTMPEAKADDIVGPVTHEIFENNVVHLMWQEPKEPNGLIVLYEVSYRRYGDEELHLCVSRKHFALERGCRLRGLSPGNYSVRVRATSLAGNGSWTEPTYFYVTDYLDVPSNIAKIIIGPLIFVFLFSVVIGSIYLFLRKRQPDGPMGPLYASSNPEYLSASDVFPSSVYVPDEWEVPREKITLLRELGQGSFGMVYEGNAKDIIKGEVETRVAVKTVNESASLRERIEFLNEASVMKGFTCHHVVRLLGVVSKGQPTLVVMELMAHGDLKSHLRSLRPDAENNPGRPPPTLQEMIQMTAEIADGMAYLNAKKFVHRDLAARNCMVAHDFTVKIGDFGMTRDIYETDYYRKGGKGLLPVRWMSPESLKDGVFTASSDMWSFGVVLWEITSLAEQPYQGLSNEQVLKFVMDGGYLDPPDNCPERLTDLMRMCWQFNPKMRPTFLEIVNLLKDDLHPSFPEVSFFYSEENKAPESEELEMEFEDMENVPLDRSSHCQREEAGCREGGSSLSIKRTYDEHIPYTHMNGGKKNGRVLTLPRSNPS

Substance-P receptor = Substance-P receptor (Homo sapiens, UniProt P25103); assay type: cell membranes, CHO, Membrane; details: for IC50 / Ki: cho; as to all read-outs here: in other assays of this panel Not Active means under 50% inhibition at 10 µM
Chain of Substance-P receptor (P25103 whole entry): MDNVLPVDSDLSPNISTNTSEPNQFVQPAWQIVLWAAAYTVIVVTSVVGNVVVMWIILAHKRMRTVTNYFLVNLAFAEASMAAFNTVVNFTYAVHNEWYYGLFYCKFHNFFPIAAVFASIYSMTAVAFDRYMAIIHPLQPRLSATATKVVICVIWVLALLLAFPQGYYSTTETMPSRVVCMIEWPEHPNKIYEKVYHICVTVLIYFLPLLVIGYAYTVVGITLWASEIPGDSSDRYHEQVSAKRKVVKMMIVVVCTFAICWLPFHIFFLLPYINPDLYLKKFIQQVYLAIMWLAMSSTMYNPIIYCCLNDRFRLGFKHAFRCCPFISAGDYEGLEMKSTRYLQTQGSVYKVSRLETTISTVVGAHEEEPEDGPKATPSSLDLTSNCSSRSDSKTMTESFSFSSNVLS

Cytochrome P450 2E1 = Cytochrome P450 2E1 (Homo sapiens, UniProt P05181); details: bti-tn-5b1-4; also: in other assays of this panel Not Active means under 50% inhibition at 10 µM
Chain of Cytochrome P450 2E1 (P05181 whole entry): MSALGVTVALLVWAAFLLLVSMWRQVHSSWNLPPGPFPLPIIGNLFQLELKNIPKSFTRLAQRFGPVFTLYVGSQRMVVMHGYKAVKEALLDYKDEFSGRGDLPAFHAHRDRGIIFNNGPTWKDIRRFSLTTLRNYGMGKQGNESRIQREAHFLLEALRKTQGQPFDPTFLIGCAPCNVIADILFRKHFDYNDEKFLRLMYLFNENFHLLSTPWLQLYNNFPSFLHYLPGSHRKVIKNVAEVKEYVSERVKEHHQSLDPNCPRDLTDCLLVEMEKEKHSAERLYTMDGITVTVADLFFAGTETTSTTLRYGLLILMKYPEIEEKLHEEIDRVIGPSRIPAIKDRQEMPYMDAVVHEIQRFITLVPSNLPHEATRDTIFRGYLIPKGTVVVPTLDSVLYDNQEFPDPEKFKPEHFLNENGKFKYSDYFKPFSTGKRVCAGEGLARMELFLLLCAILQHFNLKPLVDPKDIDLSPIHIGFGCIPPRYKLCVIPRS

[2] = target: C-C chemokine receptor type 5 (Homo sapiens, UniProt P51681); assay type: cell membranes, Membrane; details: hek293; also: in other assays of this panel Not Active means under 50% inhibition at 10 µM
Chain of C-C chemokine receptor type 5 (P51681 whole entry): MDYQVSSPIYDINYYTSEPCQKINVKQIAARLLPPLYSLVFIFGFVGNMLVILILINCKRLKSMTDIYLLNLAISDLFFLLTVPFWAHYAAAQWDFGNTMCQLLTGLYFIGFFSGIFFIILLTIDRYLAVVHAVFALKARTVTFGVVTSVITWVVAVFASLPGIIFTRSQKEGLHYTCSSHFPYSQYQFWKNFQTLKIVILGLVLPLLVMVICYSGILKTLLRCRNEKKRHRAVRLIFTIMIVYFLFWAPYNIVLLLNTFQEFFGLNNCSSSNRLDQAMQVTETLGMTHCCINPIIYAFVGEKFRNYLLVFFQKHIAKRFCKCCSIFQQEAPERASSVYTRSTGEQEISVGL

Chain of D(3) dopamine receptor (P35462 whole entry): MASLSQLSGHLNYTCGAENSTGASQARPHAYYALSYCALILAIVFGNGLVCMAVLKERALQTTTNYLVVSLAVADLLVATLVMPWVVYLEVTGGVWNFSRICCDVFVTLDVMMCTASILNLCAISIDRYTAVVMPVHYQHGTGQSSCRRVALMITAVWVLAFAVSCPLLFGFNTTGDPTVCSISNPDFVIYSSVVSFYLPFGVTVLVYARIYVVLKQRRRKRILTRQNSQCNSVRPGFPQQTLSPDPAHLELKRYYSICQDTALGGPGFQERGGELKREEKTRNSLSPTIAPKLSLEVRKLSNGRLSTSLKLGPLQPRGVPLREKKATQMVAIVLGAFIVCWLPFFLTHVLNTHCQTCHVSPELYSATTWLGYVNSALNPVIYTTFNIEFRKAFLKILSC

Compound	IC50 (D(3) dopamine receptor; cho)	IC50 [1]	IC50 (Insulin receptor)	IC50 (Substance-P receptor)	IC50 (Cytochrome P450 2E1)	Ki (Cytochrome P450 2E1)	IC50 [2]	pIC50 (D(3) dopamine receptor)	pKi (D(3) dopamine receptor)	pIC50 (Substance-P receptor; read-out: IC50)	pKi (Substance-P receptor; read-out: Ki)	pIC50 (D(3) dopamine receptor; cho)	pKi (D(3) dopamine receptor; cho)	Ki [1]	Ki (Insulin receptor)	Ki (Substance-P receptor)	Ki [2]	Ki (D(3) dopamine receptor; cho)
CCCCC(=O)N(Cc1ccc(-c2ccccc2-c2nnn[nH]2)cc1)[C@H](C(=O)O)C(C)C	Not Active	Not Active	Not Active	Not Active	Not Active	Not Active	Not Active	–	–	–	–	–	–	–	–	–	–	–
O=C(O)COc1ccc(C(=O)c2cccs2)c(Cl)c1Cl	Not Active	Not Active	Not Active	Not Active	Not Active	Not Active	Not Active	–	–	–	–	–	–	–	–	–	–	–
CN1[C@@H]2CC[C@H]1C[C@@H](OC(c1ccccc1)c1ccccc1)C2 [BENZTROPINE]	–	Not Active	Not Active	Not Active	Not Active	Not Active	Not Active	6.18	6.65	–	–	–	–	–	–	–	–	–
C[C@@](Cc1ccc(O)c(O)c1)(NN)C(=O)O.O [CARBIDOPA]	Not Active	Not Active	Not Active	Not Active	Not Active	Not Active	Not Active	–	–	–	–	–	–	–	–	–	–	–
CN1CCN(C2=Nc3cc(Cl)ccc3Nc3ccccc32)CC1 [CLOZAPINE]	–	Not Active	Not Active	Not Active	Not Active	Not Active	Not Active	–	–	–	–	–	–	–	–	–	–	–
CC(C)NC[C@@H](O)COc1cccc2ccccc12 [DEXPROPRANOLOL]	Not Active	Not Active	Not Active	Not Active	Not Active	Not Active	Not Active	–	–	–	–	–	–	–	–	–	–	–
CC(C)NC[C@H](O)COc1cccc2ccccc12 [LEVOPROPRANOLOL]	Not Active	Not Active	Not Active	Not Active	Not Active	Not Active	Not Active	–	–	–	–	–	–	–	–	–	–	–
O=C(O)CCCCC1CCSS1 (stereo not drawn) [LIPOIC ACID, ALPHA]	Not Active	Not Active	Not Active	Not Active	Not Active	Not Active	Not Active	–	–	–	–	–	–	–	–	–	–	–
CN(C)C(=O)C(CCN1CCC(O)(c2ccc(Cl)cc2)CC1)(c1ccccc1)c1ccccc1 [LOPERAMIDE]	–	Not Active	Not Active	Not Active	Not Active	Not Active	Not Active	5.87	6.34	–	–	–	–	–	–	–	–	–
Clc1ccc(COC(Cn2ccnc2)c2ccc(Cl)cc2Cl)c(Cl)c1 (stereo not given) [MICONAZOLE]	–	Not Active	Not Active	–	Not Active	Not Active	Not Active	5.49	5.96	5.17	5.43	–	–	–	–	–	–	–
Oc1ccc2c3c1O[C@H]1[C@@H](O)CC[C@@]4(O)[C@@H](C2)N(CC2CCC2)CC[C@]314 [NALBUPHINE]	Not Active	Not Active	Not Active	Not Active	–	–	Not Active	–	–	–	–	–	–	–	–	–	–	–
C[C@]12C=CC(=O)C=C1CC[C@@H]1[C@@H]2C(=O)C[C@@]2(C)[C@H]1CC[C@]2(O)C(=O)CO [PREDNISONE]	Not Active	Not Active	Not Active	Not Active	–	–	Not Active	–	–	–	–	–	–	–	–	–	–	–
OCCOCCN1CCN(C2=Nc3ccccc3Sc3ccccc32)CC1 [QUETIAPINE]	–	Not Active	Not Active	Not Active	Not Active	Not Active	Not Active	–	–	–	–	–	–	–	–	–	–	–
COC(=O)[C@H]1[C@H]2C[C@@H]3c4[nH]c5cc(OC)ccc5c4CCN3C[C@H]2C[C@@H](OC(=O)c2cc(OC)c(OC)c(OC)c2)[C@@H]1OC [RESERPINE]	Not Active	Not Active	Not Active	Not Active	Not Active	Not Active	Not Active	–	–	–	–	–	–	–	–	–	–	–
O=C(O)c1ccccc1O [SALICYLIC ACID]	Not Active	Not Active	Not Active	Not Active	Not Active	Not Active	Not Active	–	–	–	–	–	–	–	–	–	–	–
C[S+]([O-])c1ccc(-c2nc(-c3ccncc3)c(-c3ccc(F)cc3)[nH]2)cc1 (stereo not given) [SB-203580]	Not Active	Not Active	Not Active	Not Active	Not Active	Not Active	Not Active	–	–	–	–	–	–	–	–	–	–	–
CC1CCC(NC(=O)N(CCCl)N=O)CC1 (stereo not given) [SEMUSTINE]	Not Active	Not Active	Not Active	Not Active	Not Active	Not Active	Not Active	–	–	–	–	–	–	–	–	–	–	–
O=C1C[C@@H]2OCC=C3CN4CC[C@]56c7ccccc7N1[C@H]5[C@H]2[C@H]3C[C@H]46 [STRYCHNINE]	Not Active	Not Active	Not Active	Not Active	Not Active	Not Active	Not Active	–	–	–	–	–	–	–	–	–	–	–
C[N+](C)(C)CCOC(=O)CCC(=O)OCC[N+](C)(C)C.[Cl-].[Cl-] [SUCCINYLCHOLINE CHLORIDE]	Not Active	Not Active	Not Active	Not Active	Not Active	Not Active	Not Active	–	–	–	–	–	–	–	–	–	–	–
Nc1ccc(S(=O)(=O)NC(=O)c2ccccc2)cc1 [SULFABENZAMIDE]	Not Active	Not Active	Not Active	Not Active	Not Active	Not Active	Not Active	–	–	–	–	–	–	–	–	–	–	–
CCCCCCCCNC(C)C(O)c1ccc(SC(C)C)cc1 (stereo not given) [SULOCTIDIL]	–	Not Active	Not Active	Not Active	Not Active	Not Active	Not Active	5.68	6.15	–	–	–	–	–	–	–	–	–
O=c1[nH]c(=O)n(C2CCCO2)cc1F (stereo not given) [TEGAFUR]	Not Active	Not Active	Not Active	Not Active	Not Active	Not Active	Not Active	–	–	–	–	–	–	–	–	–	–	–
CC(=N)S [THIOACETAMIDE]	Not Active	Not Active	Not Active	Not Active	Not Active	Not Active	Not Active	–	–	–	–	–	–	–	–	–	–	–
Cc1ccc(C(=O)c2ccc(CC(=O)O)n2C)cc1 [TOLMETIN]	Not Active	Not Active	Not Active	Not Active	Not Active	Not Active	Not Active	–	–	–	–	–	–	–	–	–	–	–
CC(=O)OCC(COC(C)=O)OC(C)=O [TRIACETIN]	Not Active	Not Active	Not Active	Not Active	Not Active	Not Active	Not Active	–	–	–	–	–	–	–	–	–	–	–
CN1CCN(CCCN2c3ccccc3Sc3ccc(C(F)(F)F)cc32)CC1 [TRIFLUOPERAZINE]	Not Active	Not Active	Not Active	Not Active	Not Active	Not Active	Not Active	–	–	–	–	–	–	–	–	–	–	–
TRANSPLATIN	–	Not Active	Not Active	Not Active	Not Active	Not Active	Not Active	–	–	–	–	5.48	5.95	Not Active	Not Active	Not Active	Not Active	–
ZIRCONIUM(IV) CHLORIDE	Not Active	Not Active	Not Active	Not Active	Not Active	Not Active	Not Active	–	–	–	–	–	–	Not Active	Not Active	Not Active	Not Active	Not Active
